Where two headings read alike, the source gives them in different places.

In one series the target is SAE (Homo sapiens (Human), UniProt Q9UBT2). The series is described as follows: In vitro inhibitory activity assay against SAE (SUMO-2/3 immunofluorescence in HCT116 cells). It counts as cell-based. Particulars: 6 h incubation, numeric values, read-out: SUMO IF IC50. The gist of the method: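 HCT116 cells treated with compounds for 6 h at 37 °C, then fixed, permeabilized and immunostained for SUMO-2/3 with FITC secondary detection. Fluorescence compared with DMSO control to give inhibition rate and IC50.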

Series [1] can be described thus: In vivo pharmacokinetic experiment, intravenous administration. Conditions: CD-1 female mice, 2 mpk; for C0 / clearance / half-life / AUC(0-t) / Cmax / Vd: mouse, 2 mg/kg; for Vd: read-out: Vdss; for Plasma AUClast: plasma (Table 5). The procedure:
CD-1 female mice aged 6 to 8 weeks were intravenously administered at a dose of 2 mg/kg. The mice were fasted for at least 12 h before the administration and given food after the administration, and they were given ad libitum access to water during the experiment. On the day of the experiment, animals in the intravenous group were administered the corresponding compound by single injection via the tail vein at an administration volume of 0.2 mL/animal. The sample collection time was 0.083 h, 0.167 h, 0.5 h, 1 h, 2 h, 4 h, 8 h, and 24 h. About 150 μL of whole blood was collected through the submaxillary venous plexus at each time point (30 μL of whole blood was diluted with ultrapure water at a ratio of 1:3, and 120 μL of whole blood was centrifuged to obtain plasma) and used for concentration determination by high-performance liquid chromatography-tandem mass spectrometry (LC-MS/MS). All animals were sacrificed after the PK samples were collected at the last time point. The plasma concentration was processed using a non-compartmental model of Phoenix WinNonlin™ version 8.3 (Certara) pharmacokinetic software, and the pharmacokinetic parameters were calculated using a linear-log trapezoidal method.

[2] abbreviates: whole blood, read-out: Whole blood AUClast.
Where [3] appears, read: whole blood, read-out: Whole blood Cmax.

SAE, sequence (Q9UBT2 whole entry): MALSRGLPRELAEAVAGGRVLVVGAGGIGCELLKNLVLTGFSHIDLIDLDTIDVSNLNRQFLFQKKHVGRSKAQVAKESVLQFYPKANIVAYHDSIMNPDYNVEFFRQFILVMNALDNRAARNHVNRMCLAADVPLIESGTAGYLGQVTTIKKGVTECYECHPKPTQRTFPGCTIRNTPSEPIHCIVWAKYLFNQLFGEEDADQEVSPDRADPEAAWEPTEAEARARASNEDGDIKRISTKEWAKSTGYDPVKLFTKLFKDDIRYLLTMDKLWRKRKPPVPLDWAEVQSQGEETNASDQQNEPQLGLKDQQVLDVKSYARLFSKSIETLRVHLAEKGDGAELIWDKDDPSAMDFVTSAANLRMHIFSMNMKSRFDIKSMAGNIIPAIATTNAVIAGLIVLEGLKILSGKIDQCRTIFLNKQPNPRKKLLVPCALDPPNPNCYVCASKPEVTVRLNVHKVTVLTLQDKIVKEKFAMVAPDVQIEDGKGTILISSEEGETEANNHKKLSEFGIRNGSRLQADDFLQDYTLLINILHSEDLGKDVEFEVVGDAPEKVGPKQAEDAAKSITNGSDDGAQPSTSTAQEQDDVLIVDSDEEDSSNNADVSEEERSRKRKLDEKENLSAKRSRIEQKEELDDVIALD
SAE, sequence (Q9UBE0 whole entry partner): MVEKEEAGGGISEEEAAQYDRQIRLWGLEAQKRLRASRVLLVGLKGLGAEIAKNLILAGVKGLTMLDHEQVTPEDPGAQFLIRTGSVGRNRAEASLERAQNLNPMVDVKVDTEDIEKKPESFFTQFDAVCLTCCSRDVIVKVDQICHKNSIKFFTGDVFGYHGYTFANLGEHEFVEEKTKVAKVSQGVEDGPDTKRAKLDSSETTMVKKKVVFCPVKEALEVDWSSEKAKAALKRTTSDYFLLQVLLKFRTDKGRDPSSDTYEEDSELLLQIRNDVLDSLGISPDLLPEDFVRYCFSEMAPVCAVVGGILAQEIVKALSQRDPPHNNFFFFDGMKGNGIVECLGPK

In general, IC50 refers to the point on the concentration scale where inhibition reaches its midpoint. In general, clearance refers to a measure of how efficiently the substance is removed, as volume per time. A lower clearance goes with a low capacity for elimination. As usually defined, the half-life is how long it takes for the measured level to halve. The low end stands for fast loss, the high end for slow loss. The term Cmax denotes the highest concentration seen after dosing. With `NS(=O)(=O)OC[C@H]1C[C@@H](Nc2ncncc2C(=O)c2cc3c(s2)CC[C@]32NCCc3ccc(Cl)cc32)C[C@@H]1O` [Compound 48], at SAE, the IC50 turned out to be 41 nM. In series [1] (plasma), the C0 stood at 839 ng/mL, the clearance came to 44 mL/min/kg, the half-life was 1.32 h and the Vd turned out to be 3.43 L/kg. Also, the AUC(0-t) in series [1] (plasma, read-out: AUClast) is 749 ng·h/mL. Also, the Cmax in series [1] (plasma, read-out: Cmax) was found to be 719 ng/mL.
`NS(=O)(=O)OC[C@H]1C[C@@H](Nc2ncncc2C(=O)c2cc3c(s2)COC[C@]32NCCc3ccc(Cl)cc32)C[C@@H]1O` [Compound 21]: the IC50 on SAE was 87.5 nM. Besides, in series [1], the “Whole blood AUClast/plasma AUClast ratio” value is reported as 45.9, the “Whole blood Cmax/plasma Cmax ratio” value was 17.5 and the “Plasma AUClast” value was 1479 ng·h/mL. For the same compound, in series [1] (plasma), the C0 is 1610 ng/mL, the clearance was 21.1 mL/min/kg, the half-life is 2.17 h and the Vd was 3.03 L/kg. In addition, the AUC(0-t) in series [1] (plasma, read-out: AUClast) amounted to 1480 ng·h/mL. Moreover, the Cmax in series [1] (plasma, read-out: Cmax) came out at 1150 ng/mL. Besides, the AUC(0-t) in series [1] (setting [2]) stood at 67900 ng·h/mL. Also, the Cmax in series [1] (setting [3]) came out at 20200 ng/mL.
Consider `NS(=O)(=O)OC[C@H]1C[C@@H](Nc2ncncc2C(=O)c2cc3c(s2)CCC[C@]32NCCc3ccc(F)cc32)C[C@@H]1O` [Compound 9], for which the IC50 at SAE is 36 nM. Besides, in series [1], the “Whole blood AUClast/plasma AUClast ratio” value is 32.7, the “Whole blood Cmax/plasma Cmax ratio” value came out at 23.9 and the “Plasma AUClast” value was 580 ng·h/mL. Further, in series [1] (plasma), the C0 stood at 730 ng/mL, the clearance turned out to be 56.9 mL/min/kg, the half-life is 1.31 h and the Vd turned out to be 3.91 L/kg. Also, in series [1] (plasma, read-out: AUClast), the AUC(0-t) came out at 580 ng·h/mL. Further, the Cmax in series [1] (plasma, read-out: Cmax) amounted to 597 ng/mL. Further, the AUC(0-t) in series [1] (setting [2]) worked out at 19000 ng·h/mL. Besides, the highest concentration (Cmax) in series [1] (setting [3]) was 14300 ng/mL.
For `NS(=O)(=O)OC[C@H]1C[C@@H](Nc2ncncc2C(=O)c2cc3c(s2)CCC[C@]32NCCc3ccc(Cl)cc32)C[C@@H]1O` [Compound 6], the IC50 on SAE came out at 27.8 nM. Also, in series [1], the “Whole blood AUClast/plasma AUClast ratio” value is given as 39.0, the “Whole blood Cmax/plasma Cmax ratio” value was determined as 19.7 and the “Plasma AUClast” value came to 881 ng·h/mL. In addition, in series [1] (plasma), the C0 is 1080 ng/mL, the clearance came out at 36.9 mL/min/kg, the half-life was 1.45 h and the Vd was found to be 3.5 L/kg. Besides, in series [1] (plasma, read-out: AUClast), the AUC(0-t) amounted to 881 ng·h/mL. For the same compound, the Cmax in series [1] (plasma, read-out: Cmax) worked out at 798 ng/mL. Further, in series [1] (setting [2]), the AUC(0-t) is 34400 ng·h/mL. In series [1] (setting [3]), the maximum concentration (Cmax) turned out to be 15800 ng/mL.

Source of the values: patent US20260035382A1, “COMPOUNDS AS SUMO ACTIVATING ENZYME INHIBITORS” (WIGEN BIOMEDICINE TECHNOLOGY (SHANGHAI) CO., LTD., priority 2022, published 2026).
